Measured values from patent publication US20050107394A1, “Novel use of selective pde5 inhibitors” (priority 2001, published 2005).

System: rabbits
Assay: Lung damage after inhaled bleomycin (characterisation of the model)
Type: in vivo, rabbit
Excerpt: Healthy rabbits of both sexes were pretreated orally with a gyrase inhibitor (Baytril®) for one week. Ten animals pretreated in this way were not treated with bleomyin and served as control, and, on the day of exposure, the others were anaesthetized with a Ketanest®/Rompun® mixture, intubated intratracheally and ventilated mechanically. An ultrasonic nebulizer (MMAD 2.5 μm) was used to administer by inhalation exactly 1.8 U/kg of bodyweight of bleomycin under volume-controlled ventilation. After 4, 8, 16, 24, 32 and 64 days (in each case n≧5) post exposure, the animals were again anaesthetized, provided with an arterial access (right carotid artery) and underwent bodyweight-adapted ventilation via a tracheostomy in a volume-controlled method. The arterial pO2 and pCO2, and the static compliance of the lung were measured (by recording the intrathoracic pressure and with slow inflation/deflation manoeuvres). Subsequently, the lungs of these animals were dissected and perfused with a Krebs Hensefeit buffer. Under these conditions, the capillary filtraton coefficient (cfc) was then found from the weight gain of the organ after increasing the pulmonary venous pressure by 7.5 mmHg, and the peak ventilation pressure was found. After completion of these measurements, the left main bronchus was ligated in the end-inspiratory position and a bronchoalveolar lavage (BAL) was performed on the right lung. Subsequently, the large vessels and airways of the right lung were dissected off and the organ was homogenized. The left lung was perfusion-fixed with 4% formalin solution while maintaining a pressure gradient of 25 cm H2O and was then stored in 4% formalin until embedded. Firstly, the cells were removed from the BAL, counted and differentiated via a Papenheim stain. The cell-free BAL supernatant was then aliquoted and submitted to further analysis of the surfactant and coagulation properties and a determination of the matrix metallo proteinases (MMPs) and their inhibitors (TIMPs) and of soluble collagen. Bronchoalveolar deposition of 1.8 U/kg of bodyweight of bleomycin led initially to development of an ARDS-like event, with a massive restriction of gas exchange (paO2/FiO2 of >500 mmHg in the controls reduced to ˜110 mmHg on day 4), ground-glass opacities over all sections of the lung in the HRCT and an increase of about 5-fold in the capillary filtration coefficient (cfc). In the later phase of bleomycin-induced lung damage there was then development of pronounced fibrosis which could be confirmed on the basis of the increase in soluble collagen in the BAL and the hydroxyproline in the tissue, on the basis of the histological specimens and of the HRCT findings. […] Consistent with this, a pronounced increase in the extracellular matrix and an alveolar and also interstitial ingress of fibroblasts was observable in the histological sections. Besides the homogeneously distributed zones of fibrosis there were also thin hyperdistended sections of lung with a honeycomb appearance.

## bleomycin
After 64 days
  concentration of soluble collagen in the BAL: 7000 ± 2200 ng/mL
Day 4 after 1.8 U/kg bleomycin by inhalation, controls >500 mmHg
  paO2/FiO2: ~110 mmHg
Day 16 after bleomycin, controls 1.1±0.4
  concentration of soluble collagen in the BAL (maximum): 38300 ± 12500 ng/mL
Early phase after 1.8 U/kg bleomycin
  capillary filtration coefficient (cfc), increase: about 5 fold
From day 16 onwards
  hydroxyproline content of the tissue: approximately doubled
